Test results from patent US5856350A, “3-phenyl-1,4-dialkyl-1,2,4-triazolium salts and their use as antidepressants” (Hoechst Marion Roussel, Inc., priority 1996, dated 1999).
Like-named read-outs stand apart in the source and are kept apart here.

Key:
[1] = system: Ro 4-1284-induced hypothermia; test: Antagonism to Ro 4-1284-induced hypothermia; format: in vivo; conditions: male mice, Ro 4-1284 20 mg/kg i.p.; for ED50: Mus musculus, ip
Procedure: Another assay utilized to evaluate antidepressant activity is testing for the antagonism to Ro 4-1284*--induced hypothermia. (*Niemegeers, Carlos, J. E. "Antagonism of Reserpine--Like Activity", edited by S. Fielding and Lal, published by Futura, pg. 73-98.) In this test, groups of male mice are weighed and housed individually in wire mesh cages. The rectal temperature of each mouse is recorded and the test compound or vehicle is then administered. […] Mice are then placed in a cold room (36° F.) for 30 minutes, and then returned to room temperature for 30 minutes. At this time (60 minutes after Ro 4-1284 administration) the rectal temperature of each mouse is again recorded. […] The final temperatures of control groups of ten Ro 4-1284-treated mice from a number of experiments are combined to form an "historic control" of 100 mice. This control is updated periodically by replacement of the oldest data.

LD50 = conditions: in vivo; Table I; species and route not given
Text: The results of testing a number of compounds of formula I for the effects summarized above, as well as their LD50, are summarized in Table I.

reserpine-induced ptosis = test: Prevention of reserpine-induced ptosis in mice; format: in vivo; conditions: Mus musculus, iv, reserpine 2 mg/kg i.v.
Procedure: In this assay, test groups of weighed mice are housed individually in wire mesh cages and administered test compound or vehicle. At a selected time thereafter, reserpine is administered as a 0.2 mg/ml solution in dilute acetic acid at a dose of 2 mg/kg intravenously into a tail vein. In each assay the animals are examined individually in a Plexiglas® cylinder 90 minutes later. Prevention or delay in ptosis is considered significant if the average closure of both eyes is less than 50% after observing for 30 seconds.

[2] = system: depression; neurodegeneration; conditions: prior art compound; cited from earlier work
[3] = Metabolite identification in the urine of test animals
[4] = Table I, two determinations listed separately where marked *, read-out: Ro 4-1284 Induced Hypothermia ED50
[5] = Table I, pre-treatment time and route of test compound not given, read-out: Reserpine-Induced Ptosis ED50
[6] = 1 h, 60 minute pre-treatment time, i.p., read-out: ED50 for antagonism of Ro 4-1284-induced hypothermia
[7] = 1 h, 60 minute pre-treatment time, read-out: ED50 for prevention of reserpine-induced ptosis

| Compound | ED50 [1, 4] | LD50 (LD50) | ED50 (reserpine-induced ptosis; [5]) | ED50 [1, 6] | also measured |
| --- | --- | --- | --- | --- | --- |
| Cn1c[n+](C)nc1-c1ccccc1F [Rn 2-F--] | 0.74 mg/kg | 100 to 200 mg/kg | 0.28 mg/kg | – | Ro 4-1284 Induced Hypothermia ED50 ([1]; Table I, two determinations listed separately where marked *, 20 mg/kg): 0.58 mg/kg |
| Cn1c[n+](C)nc1-c1cccc(F)c1 [Rn 3-F--, 3-(3-Fluorophenyl)-1,4-dimethyl-1,2,4-triazolium hydrosulfate] | 0.34 mg/kg | 200 to 400 mg/kg | 0.19 mg/kg | 0.34 mg/kg | – |
| Cn1nc(-c2cccc(F)c2)n(C)c1=S [5-(3-fluorophenyl)-2,4-dimethyl-3H-1,2,4-triazole-3-thione] | – | – | – | – | known antidepressant and neuroprotective activity [2]: antidepressant activity as well as activity in tests indicative of protection from neurodegeneration |
| COc1ccccc1-c1n[n+](C)cn1C [2-CH3 O--] | > 3.12 mg/kg | 50 to 100 mg/kg | > 12.5 mg/kg | – | – |
| CC(Cc1ccccc1)NN (stereo not drawn) [catron, reference compound] | – | – | – | 0.7 mg/kg | – |
| CNCCCN1c2ccccc2CCc2ccccc21 [desipramine, reference compound] | – | – | – | 0.1 mg/kg | – |
| Cn1c[n+](C)nc1-c1c(F)cccc1F [2,6-F2 --] | 0.58 mg/kg | 100 to 200 mg/kg | 5.34 mg/kg | – | – |
| Cn1c[n+](C)nc1-c1ccc(Cl)cc1 [Rn 4-Cl--, 3-(4-chlorophenyl)-1,4-dimethyl-1,2,4-triazolium hydrosulfate] | 0.51 mg/kg | 100 to 200 mg/kg | 0.09 mg/kg | – | ED50 (reserpine-induced ptosis; [7]): 0.09 mg/kg |
| Cn1c[n+](C)nc1-c1cccc(F)c1 [3-(3-fluorophenyl)-1,4-dimethyl-1,2,4-triazolium ion] | – | – | – | – | urinary metabolite of 5-(3-fluorophenyl)-2,4-dimethyl-3H-1,2,4-triazole-3-thione [3]: identified in the urine of test animals as a metabolite |
| Cn1c[n+](C)nc1-c1ccc(I)cc1 [Rn 4-I--] | > 6.25 mg/kg | 100 to 200 mg/kg | 2.82 mg/kg | – | – |
| Cn1c[n+](C)nc1-c1ccc(Br)cc1 [Rn 4-Br--] | 0.81 mg/kg | 200 to 400 mg/kg | 0.23 mg/kg | – | – |
| CN(C)CCCN1c2ccccc2CCc2ccccc21 [imipramine, reference compound] | – | – | – | 1.8 mg/kg | ED50 (reserpine-induced ptosis; [7]): 4.89 mg/kg |
| COc1c(F)cccc1-c1n[n+](C)cn1C [3-F-2-CH3 O--] | 2 mg/kg | 100 to 200 mg/kg | 1.31 mg/kg | – | – |
